Tests used:
NEP [1] = biological target: T1, NEP (Rattus norvegicus, UniProt P07861); assay: Met-enkephalinase activity of rat spinal cord slices, Met-enkephalin RIA; format: biochemical; conditions: 10 μM, fresh spinal cord tissue, 20 min at 25° C.
T1 construct: incubations of membrane and fresh tissue slice preparations from nervous tissues; from tissue; host or cells: dorsal spinal cord of male Wistar rats (fresh slices or 100 000 x g membrane fraction)
T1 sequence (P07861 1-750): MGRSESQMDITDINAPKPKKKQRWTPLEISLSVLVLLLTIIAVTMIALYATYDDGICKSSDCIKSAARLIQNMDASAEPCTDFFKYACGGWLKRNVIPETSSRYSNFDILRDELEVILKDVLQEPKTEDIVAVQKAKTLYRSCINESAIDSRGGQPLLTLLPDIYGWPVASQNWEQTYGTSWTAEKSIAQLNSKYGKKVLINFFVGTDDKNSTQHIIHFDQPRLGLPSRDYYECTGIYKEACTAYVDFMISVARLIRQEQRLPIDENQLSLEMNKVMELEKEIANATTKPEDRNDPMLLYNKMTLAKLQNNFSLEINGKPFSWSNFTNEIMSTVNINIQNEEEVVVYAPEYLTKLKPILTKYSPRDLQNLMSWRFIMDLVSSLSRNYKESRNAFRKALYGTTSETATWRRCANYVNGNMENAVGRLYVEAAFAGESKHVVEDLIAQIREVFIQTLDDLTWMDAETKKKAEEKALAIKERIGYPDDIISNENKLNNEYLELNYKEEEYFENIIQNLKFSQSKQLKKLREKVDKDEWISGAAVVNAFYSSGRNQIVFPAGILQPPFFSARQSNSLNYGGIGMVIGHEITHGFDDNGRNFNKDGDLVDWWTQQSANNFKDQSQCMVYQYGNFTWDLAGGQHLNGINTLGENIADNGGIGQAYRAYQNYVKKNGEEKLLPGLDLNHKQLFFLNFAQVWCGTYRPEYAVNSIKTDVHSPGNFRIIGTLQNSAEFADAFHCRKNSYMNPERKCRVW
Method: FIG. 2-A: […] The organs are rapidly removed, dissected on ice, freed of nerve fibers and of adipose tissues and then washed in cold oxygenated glucose- and bicarbonate-containing Krebs Ringer (KRBG) solution, whose composition is the following: 120 mM NaCl-5 mM KCl-1.2 mM KH2PO4-27.5 mM NaHCO3-2.6 mM CaCl2-0.67 mM MgSO4-5.9 mM glucose. The slices of tissues are prepared either manually with the aid of a scalpel (1-2 mm thick), or mechanically with the aid of a “Tissue Chopper” (1 mm thick). Slices are then dispersed into reaction tubes where they are subjected to three successive washes in ice-cold oxygenated KRBG. […] For the experiments of analysis of the NEP peptidase activity, an ex vivo model using incubations of membrane and fresh tissue slice preparations from nervous tissues that are known to be appropriate for exploring NEP peptidase activity: i.e. the dorsal zone of rat spinal cord, was first developed. The metabolism rate of the NEP-sensitive peptides was measured using the both NEP substrates involved in the signaling of the nociceptive response: the neuropeptides Met-enkephalin and Substance P. […] (NEN, 12.5-25 nM) were used. The objective was to measure the NEP-specific endoproteolysis of these substrates. […] Furthermore, for studying the functional role of […] NO: 2), the reaction was carried out in the presence of the SMR1-peptide alone or combined with specific inhibitors of membrane peptidases which could inactivate the […] […] Herein, a competitive RIA system has been used: the quantity of radioactive antigen bound to the antibody decreases in a manner inversely proportional to the quantity of antigen contained in the standard solution or in the sample. […] The activity of enkephalinase NEP is monitored by quantification of the disappearance of the initial Met-enkephalin substrate. […] The radiolabeled antigen is iodinated Met-enkephalin (^125I-Met-Enk enkephalin) with a specific radioactivity estimated at 3000 Ci/mmol. […] After centrifugation, the bound radioactivity of the precipitate is quantified using a gamma-spectrometer.

NEP [2] = biological target: T1, NEP; assay: Met-enkephalin hydrolysis by rat spinal cord slices and membrane preparations, RP-HPLC analysis; format: biochemical; conditions: 10 μM alone, spinal cord slices, 20 min at 25° C., 10 μM Met-enkephalin
Method: FIG. 2-B: […] Retention time) recovered after 20 min. incubation at 25° C. with 1 mg fresh tissue slices in a 1 ml final volume of KRBG buffer. The organs are rapidly removed, dissected on ice, freed of nerve fibers and of adipose tissues and then washed in cold oxygenated glucose- and bicarbonate-containing Krebs Ringer (KRBG) solution, whose composition is the following: 120 mM NaCl-5 mM KCl-1.2 mM KH2PO4-27.5 mM NaHCO3-2.6 mM CaCl2-0.67 mM MgSO4-5.9 mM glucose. The slices of tissues are prepared either manually with the aid of a scalpel (1-2 mm thick), or mechanically with the aid of a “Tissue Chopper” (1 mm thick). Slices are then dispersed into reaction tubes where they are subjected to three successive washes in ice-cold oxygenated KRBG. […] The organs dissected out and washed in ice-cold KRBG are homogenized at 4° C. in 10 volumes (vol./wt.) of 50 mM Tris/HCl buffered at pH 7.2, using a Teflon-glass homogenizer (3×5 sec.). […] The metabolism rate of the NEP-sensitive peptides was measured using the both NEP substrates involved in the signaling of the nociceptive response: the neuropeptides Met-enkephalin and Substance P. […] Their identification and relative quantification (peak height) are checked by continuously monitoring the UV absorbance at 254 nm of column outflow. […]

male rats = assay: Pin pain test; format: in vivo, rat
Method: The 3-min test session was performed 5 min after intravenous. rat tail vein administration of sialorphin or its vehicle. Naloxone (0.3 mg per kg body weight) was injected subcutaneously 15 min before sialorphin administration. Time in centre field sector (FIG. 6-C) (central square of the open-field without pin) and activity (FIGS. 6-A and 6-B) in peripheral squares (overlayed with pins) during the 3-min test session. Each value represents the mean±sem of 8 animals per group. […] Control group corresponded to pain response in vehicle-treated rats. 50 μg/kg sialorphin, 100 μg/kg sialorphin, 100 μg/kg sialorphin plus naloxone 0.3 mg/kg.
To extend the insight into the in vivo possible antinociceptive property of sialorphin through enkephalin-degrading enzyme inhibition, its effects were assessed in rat model of pain, i.e. the pin pain test, (Hebert et al. (1999) Physiology & Behavior 67, 99-105) in which the various behavioural parameters of pain responses were recorded with a 3-min cutoff time.
The in vivo activity of sialorphin was tested on the pin pain assay using male rats (350-400 g, Charles Rivers). The experimental device consists in an open-field (45×45×40 cm) which is divided into nine equal squares (150×150 mm), eight of them are peripheral and one is central. The peripheral squares are overlayed with stainless steel pins (2/cm2, length 8 mm and diameter 0.6 mm). The test consisted in placing the rat in the central square of the open-field and recording its different behaviours (cut-off time, 3 min). Two days before the pain test, the rats were familiarised with the experimental device without pins for 20 min, so as to reduce the stress linked to the spatial neophobia. All statistical analyses were carried out using the Statview 5 statistical package.

[3] = naloxone 0.3 mg per kg subcutaneous, prior to sialorphin

protection of Met-enkephalin from degradation (NEP [1])	inhibition of Met-enkephalinase activity (Met-enkephalin degradation) (NEP [2])	SMILES	reversal of the sialorphin-effect on behavioural parameters of noxious response (male rats; [3])	reversal of the sialorphin-effect on time in central area (male rats; [3])	reversal of the sialorphin-effect on vocalisation parameter (male rats; [3])	time in the central area of the open-field (male rats; sialorphin plus naloxone 0.3 mg/kg s.c. 15 min before sialorphin)
100%	–	O=C(O)CNC(=O)C(CS)Cc1ccccc1 (stereo not shown) [Thiorphan]	–	–	–	–
96%	complete inhibition	CC(C)C[C@H](NP(=O)(O)O[C@@H]1O[C@@H](C)[C@H](O)[C@@H](O)[C@H]1O)C(=O)N[C@@H](Cc1c[nH]c2ccccc12)C(=O)O [Phosphoramidon, reference compound]	–	–	–	–
–	–	C=CCN1CC[C@]23c4c5ccc(O)c4O[C@H]2C(=O)CC[C@@]3(O)[C@H]1C5 [naloxone, reference compound]	42-63%	56%	20%	112.38 ± 17.44 s
